In article PMC8358987 (Clinical cancer research : an official journal of the …, 2021):
Values belong to the molecule of their own block, whether it stands above or below them.

Key:
OATP1B1 [1] = biological target: T1, OATP1B1 (Homo sapiens, UniProt Q9Y6L6); format: cell-based; details: for Mechanism of OATP1B1 inhibition: kinetic analysis (Dixon plot) and pre-incubation effects; for Reduction of OATP1B1 function: overexpressing HEK293 cells, 10 μM TKI screen
T1 sequence (Q9Y6L6 1-691): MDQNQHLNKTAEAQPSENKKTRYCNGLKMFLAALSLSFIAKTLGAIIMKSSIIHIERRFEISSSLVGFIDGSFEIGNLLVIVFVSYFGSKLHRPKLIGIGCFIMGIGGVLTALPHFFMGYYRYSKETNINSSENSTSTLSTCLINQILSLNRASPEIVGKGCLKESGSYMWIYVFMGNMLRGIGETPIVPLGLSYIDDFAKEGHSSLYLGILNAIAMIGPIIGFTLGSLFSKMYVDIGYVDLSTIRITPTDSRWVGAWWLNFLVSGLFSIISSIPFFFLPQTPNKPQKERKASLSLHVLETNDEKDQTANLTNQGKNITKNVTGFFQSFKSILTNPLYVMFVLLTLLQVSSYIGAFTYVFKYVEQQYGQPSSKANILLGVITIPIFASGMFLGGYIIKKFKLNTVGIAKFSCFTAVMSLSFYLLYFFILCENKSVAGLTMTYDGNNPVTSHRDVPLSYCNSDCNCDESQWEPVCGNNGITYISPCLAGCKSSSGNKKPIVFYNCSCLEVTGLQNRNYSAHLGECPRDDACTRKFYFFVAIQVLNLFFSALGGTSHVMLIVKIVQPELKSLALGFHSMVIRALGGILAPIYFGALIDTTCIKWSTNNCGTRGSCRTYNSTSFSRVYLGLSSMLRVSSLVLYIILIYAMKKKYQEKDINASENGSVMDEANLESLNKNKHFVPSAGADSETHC

LYN kinase = LYN kinase (Homo sapiens, UniProt P07948); test: Kinase hotspot assay against LYN kinase; format: biochemical; details: for Inhibition of LYN kinase activity: 10-dose curve from 50 μM, 10 μM ATP
[2] = cited from earlier work
OATP1B1 [3] = biological target: T1, OATP1B1; test: OATP1B1-dependent uptake of 3H-EβG in human plateable hepatocytes; format: cell-based; details: 10 μM, 15 min pre-incubation; 3H-EβG 1 μM, 2 minutes
OATP1B1 [4] = test: Mass spectrometric analysis of OATP1B1 tyrosine phosphorylation; format: cell-based, human; details: 10 μM nilotinib 15 minutes
OATP1B1 [5] = test: Surface expression of OATP1B1 by biotinylation; format: cell-based, human; details: 10 μM nilotinib
PKC = details: concentrations of nilotinib used in the study; cited from earlier work
OATP1B1 [6] = details: ref prescribing information; cited from earlier work
OATP1B1 [7] = biological target: T1, OATP1B1; test: Cellular accumulation of 3H-lapatinib; format: in vitro ADME; details: 3H-lapatinib 1 μM

LYN kinase, sequence (P07948 whole entry): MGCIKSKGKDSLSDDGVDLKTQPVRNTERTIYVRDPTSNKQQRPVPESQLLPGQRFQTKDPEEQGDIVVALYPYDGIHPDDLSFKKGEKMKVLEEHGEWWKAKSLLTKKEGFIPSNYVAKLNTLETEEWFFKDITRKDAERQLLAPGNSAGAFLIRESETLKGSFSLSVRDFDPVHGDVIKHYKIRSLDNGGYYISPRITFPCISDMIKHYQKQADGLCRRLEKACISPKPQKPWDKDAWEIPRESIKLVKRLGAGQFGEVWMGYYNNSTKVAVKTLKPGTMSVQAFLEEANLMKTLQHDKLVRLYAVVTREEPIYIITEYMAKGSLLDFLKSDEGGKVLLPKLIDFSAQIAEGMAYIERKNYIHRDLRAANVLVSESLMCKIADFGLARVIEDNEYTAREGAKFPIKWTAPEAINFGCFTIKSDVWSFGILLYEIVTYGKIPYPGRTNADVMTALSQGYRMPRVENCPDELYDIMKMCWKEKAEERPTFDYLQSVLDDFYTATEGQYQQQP

Compound: Cc1cn(-c2cc(NC(=O)c3ccc(C)c(Nc4nccc(-c5cccnc5)n4)c3)cc(C(F)(F)F)c2)cn1 [nilotinib]
Mechanism of OATP1B1 inhibition (OATP1B1 [1]): predominantly non-competitive
Reduction of OATP1B1 function (OATP1B1 [1]): > 75%
Effect on OATP1B1-dependent transport ex vivo in human hepatocytes (OATP1B1 [3]): reduces OATP1B1-dependent transport
Effect on overall tyrosine phosphorylation of OATP1B1 (OATP1B1 [4]; overexpressing HEK293 cells): no significant effect
Effect on OATP1B1 phosphorylation at Y645 (OATP1B1 [4]; P<0.05): significantly reduced
Effect on OATP1B1 phosphorylation of Y640 alone (OATP1B1 [4]; trend, P = 0.11): not significantly reduced
Effect on membrane surface expression of OATP1B1 (OATP1B1 [5]): not associated with significantly reduced membrane surface expression
Effect on PKC activity (PKC): do not affect PKC activity

Compound: COc1cc2nccc(Oc3ccc(NC(=O)C4(C(=O)Nc5ccc(F)cc5)CC4)cc3)c2cc1OC [cabozantinib]
Reduction of OATP1B1 function (OATP1B1 [1]): > 75%
IC50 (LYN kinase): 15 to 685 nM

Compound: Cc1ccc(Nc2nccc(N(C)c3ccc4c(C)n(C)nc4c3)n2)cc1S(N)(=O)=O [pazopanib]
Effect on systemic concentrations of the OATP1B1 substrate rosuvastatin [2]: increase the systemic concentrations

Compound: O=C(Nc1cnn2ccc(N3CCC[C@@H]3c3cc(F)ccc3F)nc12)N1CC[C@H](O)C1 [larotrectinib]
OATP1B1 substrate/inhibitor status per prescribing information (OATP1B1 [6]): neither a substrate nor an inhibitor of OATP1B1

Compound: CS(=O)(=O)CCNCc1ccc(-c2ccc3ncnc(Nc4ccc(OCc5cccc(F)c5)c(Cl)c4)c3c2)o1 [lapatinib]
Inhibition of LYN kinase activity (LYN kinase): did not inhibit
OATP1B1 substrate status (OATP1B1 [7]): transported substrate of OATP1B1
OATP1B1 substrate/inhibitor status per prescribing information (OATP1B1 [6]): can reduce OATP1B1 function

Second part, led by results:

Mechanism of OATP1B1 inhibition (OATP1B1 [1]): competitive
Inhibition of LYN kinase activity (LYN kinase): did not inhibit
Compound: CC(=O)Nc1cccc(-n2c(=O)n(C3CC3)c(=O)c3c(Nc4ccc(I)cc4F)n(C)c(=O)c(C)c32)c1 [trametinib]

Reduction of OATP1B1 function (OATP1B1 [1]): > 75%
Compound: CC(C)(C)c1nc(-c2cccc(NS(=O)(=O)c3c(F)cccc3F)c2F)c(-c2ccnc(N)n2)s1 [dabrafenib]
Effect on systemic concentrations of the OATP1B1 substrate rosuvastatin [2]: increase the systemic concentrations

Reduction of OATP1B1 function (OATP1B1 [1]): > 75%
Compound: CNC(=O)c1cc(Oc2ccc(NC(=O)Nc3ccc(Cl)c(C(F)(F)F)c3)cc2)ccn1 [sorafenib]

Reduction of OATP1B1 function (OATP1B1 [1]): > 75%
Compound: CNC(=O)c1ccccc1Sc1ccc2c(/C=C/c3ccccn3)n[nH]c2c1 [axitinib]
